In patent publication US10087216B2 (priority 2014, dated 2018):

Tested on: potassium ion channel current of the DRG neurons
Test: cells
Format: cell-based, SD rats

Nc1ccncc1 [4AP, 4-aminopyridine]
Current recorded after loading (5 mM): 0.9766 nA
inhibition at 5000 µM (Rattus norvegicus, DRG neuron, read-out: Current inhibition rate): 33.8%
